Experimental data taken from US8354436B2 (4SC Discovery GmbH, priority 2011, dated 2013).
Read-outs that look alike come from different tables or passages of the source.

Legend:
Assay type in all cases: cell-based
Details in all cases: 48 hours
IL-17FF = IL-17FF production by PHA-stimulated human PBMC (human IL-17F ELI-Pair)
Protocol: Analysis of Proliferation of and Cytokine Production by Human PBMC Stimulated with PHA
Peripheral blood mononuclear cells (PBMC) from healthy human donors were purified using Accuspin™ System-Histopaque-1077 (Sigma) according to the protocol recommended by the manufacturer. Purified PBMC were then washed twice with phosphate-buffered saline (PBS) and resuspended in RPMI1640 culture medium supplemented with 10% dialyzed heat inactivated fetal calf serum, 1.5 mM L-glutamine, 100 U penicillin/ml, and […] (all from PAN Biotech, Aidenbach, Germany). For stimulation, PBMC were seeded at 1×10^5 cells/well, activated with 2 μg/ml phytohaemagglutinin (PHA, Sigma) and incubated with the test compounds for 48 hours. IL-17A, IL-17F and INF-γ were then determined in the culture supernatant using a Luminex BioPlex system, following the manufacturer's instructions (BioRad, Munich, Germany). For screening, compounds were used at 10, 1, 0.1 and 0.01 μM. To determine the IC50, compounds were titrated semilogarithmically.
Cytokines were determined in the aforementioned culture supernatant using the following methods: IL-17AA/AF was measured using the Luminex BioPlex system (BioRad, Munich, Germany); IL-17AA using the human homodimer IL-17A ELISA Ready Set Go Kit from eBioscience (Frankfurt, Germany); IL-17FF using the human IL-17F ELI-Pair from Hölzel DiagnosticaGmBH (Köln, Germany); and IFN-γ using the OptEIA human IFN-g ELISA from BD Bioscience (Heidelberg, Germany), all following the manufacturer's instructions.

IFN-γ = IFN-γ production by PHA-stimulated human PBMC (OptEIA human IFN-g ELISA)
Method in brief: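 Supernatant cytokine levels are read by bead-based Luminex or sandwich ELISA after 48 h culture of PHA-stimulated (2 μg/ml) human PBMC with compound. Cells are seeded at 1×10^5 per well; IC50 values derive from semilogarithmic dilution series.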

[1] = system: PBMC from healthy human donors; assay: T cell proliferation assay (PHA-stimulated human PBMC, BrdU ELISA)
Method in brief: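 Proliferation was quantified by BrdU ELISA 48 hours after starting culture of 1×10⁵ human PBMC per well with test compound and 2 μg/ml phytohaemagglutinin. Cells came from healthy donors via Ficoll separation and were kept in RPMI1640 with 10% dialysed heat-inactivated FCS.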

[2] = PHA-stimulated human PBMC, column B, read-out: IC50 (IL-17FF)
[3] = PHA-stimulated human PBMC, column C, read-out: IC50 (IFNγ)
[4] = PHA-stimulated human PBMC, column D, read-out: IC50 (Tcell proliferation)
[5] = human PBMC, 2 μg/ml PHA, read-out: B: IC50 (IL-17FF)
[6] = human PBMC, 2 μg/ml PHA, read-out: C: IC50 (IFNγ)
[7] = human PBMC, 2 μg/ml PHA, read-out: D: IC50 (Tcell proliferation)

| SMILES | IC50 (IL-17FF; [2]) [nM] | IC50 (IFN-γ; [3]) [nM] | IC50 [1, 4] [nM] | IC50 (IL-17FF; [5]) [nM] | IC50 (IFN-γ; [6]) [nM] | IC50 [1, 7] [nM] |
| --- | --- | --- | --- | --- | --- | --- |
| CCOC(=O)c1c(-c2ccncc2F)noc1-c1cnn(-c2ccncc2)c1C(F)(F)F [IB-3, ethyl 3-(3-fluoropyridin-4-yl)-5-(1-(pyridin-4-yl)-5-(trifluoromethyl)-1H-pyrazol-4-yl)isoxazole-4-carboxylate] | 100 to 1000 | 10 to 100 | 100 to 1000 | – | – | – |
| COC(=O)c1c(-c2ccccc2Cl)noc1-c1cnn(-c2cccc(Cl)c2)c1C(F)(F)F [IB-71, methyl 3-(2-chlorophenyl)-5-(1-(3-chlorophenyl)-5-(trifluoromethyl)-1H-pyrazol-4-yl)isoxazole-4-carboxylate] | < 10 | < 10 | < 10 | – | – | – |
| COC(=O)c1c(-c2c(F)cccc2Cl)noc1-c1cnn(-c2cccc(F)c2)c1 [IB-21, methyl 3-(2-chloro-6-fluorophenyl)-5-(1-(3-fluorophenyl)-1H-pyrazol-4-yl)isoxazole-4-carboxylate] | 100 to 1000 | 100 to 1000 | 100 to 1000 | – | – | – |
| Cc1csc(-c2c(-c3c(F)cccc3Cl)noc2-c2cnn(-c3cccc(Cl)c3)c2C(F)(F)F)n1 [Example 4] | – | – | – | < 10 | < 10 | < 10 |
| O=C(c1c(-c2c(F)cccc2Cl)noc1-c1cnn(-c2cccc(F)c2)c1C(F)(F)F)N1CCCO1 [Example I-118, (3-(2-chloro-6-fluorophenyl)-5-(1-(3-fluorophenyl)-5-(trifluoromethyl)-1H-pyrazol-4-yl)isoxazol-4-yl)(isoxazolidin-2-yl)methanone] | 10 to 100 | 10 to 100 | 10 to 100 | – | – | – |
| CCOC(=O)c1c(-c2c(F)cccc2Cl)noc1-c1cnn(-c2ccc([N+](=O)[O-])cc2)c1C(F)(F)F [IB-94, ethyl 3-(2-chloro-6-fluorophenyl)-5-(1-(4-nitrophenyl)-5-(trifluoromethyl)-1H-pyrazol-4-yl)isoxazole-4-carboxylate] | 1000 to 10000 | 1000 to 10000 | 1000 to 10000 | – | – | – |
| CON(C)C(=O)c1c(-c2c(F)cccc2Cl)noc1-c1cnn(-c2cccnc2)c1C(F)(F)F [IB-56, 3-(2-chloro-6-fluorophenyl)-N-methoxy-N-methyl-5-(1-(pyridin-3-yl)-5-(trifluoromethyl)-1H-pyrazol-4-yl)isoxazole-4-carboxamide] | 1000 to 10000 | 1000 to 10000 | 1000 to 10000 | – | – | – |
| CCOC(=O)c1c(-c2ccncc2F)noc1-c1cnn(-c2ccccc2Cl)c1C(F)(F)F [IB-13, ethyl 5-(1-(2-chlorophenyl)-5-(trifluoromethyl)-1H-pyrazol-4-yl)-3-(3-fluoropyridin-4-yl)isoxazole-4-carboxylate] | 10 to 100 | 10 to 100 | 10 to 100 | – | – | – |
| CO/C(=N\c1c(-c2c(F)cccc2Cl)noc1-c1cnn(-c2cccc(F)c2)c1C(F)(F)F)C(F)(F)F [Example I-136, (Z)-methyl N-(3-(2-chloro-6-fluorophenyl)-5-(1-(3-fluorophenyl)-5-(trifluoromethyl)-1H-pyrazol-4-yl)isoxazol-4-yl)-2,2,2-trifluoroacetimidate] | 100 to 1000 | 10 to 100 | 100 to 1000 | – | – | – |
| O=C(c1c(-c2c(F)cccc2Cl)noc1-c1cnn(-c2ccccc2F)c1C(F)(F)F)N1CCOCC1 [Example I-16, (3-(2-chloro-6-fluorophenyl)-5-(1-(2-fluorophenyl)-5-(trifluoromethyl)-1H-pyrazol-4-yl)isoxazol-4-yl)(morpholino)methanone] | 100 to 1000 | 100 to 1000 | 1000 to 10000 | – | – | – |
| Cc1nnc(-c2c(-c3c(F)cccc3Cl)noc2-c2cnn(-c3ccncc3)c2C(F)(F)F)s1 [Example B-22, 3-(2-chloro-6-fluorophenyl)-4-(5-methyl-1,3,4-thiadiazol-2-yl)-5-(1-(pyridin-4-yl)-5-(trifluoromethyl)-1H-pyrazol-4-yl)isoxazole] | – | – | – | 100 to 1000 | 10 to 100 | 100 to 1000 |
| COC(=O)c1c(-c2c(F)cccc2Cl)noc1-c1cnn(-c2ccncc2)c1C(F)(F)F [IB-69, methyl 3-(2-chloro-6-fluorophenyl)-5-(1-(pyridin-4-yl)-5-(trifluoromethyl)-1H-pyrazol-4-yl)isoxazole-4-carboxylate] | 10 to 100 | 10 to 100 | 10 to 100 | – | – | – |
| CCOC(=O)c1c(-c2c(F)cccc2Cl)noc1-c1cnn(-c2cccc(C(N)=O)c2)c1C(F)(F)F [IB-100, ethyl 5-(1-(3-carbamoylphenyl)-5-(trifluoromethyl)-1H-pyrazol-4-yl)-3-(2-chloro-6-fluorophenyl)isoxazole-4-carboxylate] | 1000 to 10000 | 1000 to 10000 | 1000 to 10000 | – | – | – |
| COC(=O)c1c(-c2c(F)cccc2Cl)noc1-c1cnn(-c2cccc(N)c2)c1C(F)(F)F [IB-92, methyl 5-(1-(3-aminophenyl)-5-(trifluoromethyl)-1H-pyrazol-4-yl)-3-(2-chloro-6-fluorophenyl)isoxazole-4-carboxylate] | 10 to 100 | 10 to 100 | 10 to 100 | – | – | – |
| Fc1cccc(Cl)c1-c1noc(-c2cnn(-c3cccnc3)c2C(F)(F)F)c1-c1cnco1 [Example B-32, 3-(2-chloro-6-fluorophenyl)-4-(oxazol-5-yl)-5-(1-(pyridin-3-yl)-5-(trifluoromethyl)-1H-pyrazol-4-yl)isoxazole] | – | – | – | 1000 to 10000 | 100 to 1000 | 1000 to 10000 |
| CNC(=S)c1c(-c2c(F)cccc2Cl)noc1-c1cnn(-c2ccc(F)cc2)c1C(F)(F)F [Example I-76, 3-(2-chloro-6-fluorophenyl)-5-(1-(4-fluorophenyl)-5-(trifluoromethyl)-1H-pyrazol-4-yl)-N-methylisoxazole-4-carbothioamide] | 1000 to 10000 | 100 to 1000 | 1000 to 10000 | – | – | – |
| Fc1cccc(Cl)c1-c1noc(-c2cnn(-c3cccc(Cl)c3)c2C(F)(F)F)c1-c1nnco1 [Example B-5, 2-(3-(2-chloro-6-fluorophenyl)-5-(1-(3-chlorophenyl)-5-(trifluoromethyl)-1H-pyrazol-4-yl)isoxazol-4-yl)-1,3,4-oxadiazole] | – | – | – | < 10 | < 10 | < 10 |
| O=C(c1c(-c2c(F)cccc2Cl)noc1-c1cnn(-c2cccc(Cl)c2)c1C(F)(F)F)N1CCCO1 [Example I-132, (3-(2-chloro-6-fluorophenyl)-5-(1-(3-chlorophenyl)-5-(trifluoromethyl)-1H-pyrazol-4-yl)isoxazol-4-yl)(isoxazolidin-2-yl)methanone] | 10 to 100 | < 10 | 10 to 100 | – | – | – |
| COC(=O)c1c(-c2c(F)cccc2Cl)noc1-c1cnn(-c2ccc(S(C)(=O)=O)cc2)c1C(F)(F)F [Example I-85, methyl 3-(2-chloro-6-fluorophenyl)-5-(1-(4-(methylsulfonyl)phenyl)-5-(trifluoromethyl)-1H-pyrazol-4-yl)isoxazole-4-carboxylate] | 1000 to 10000 | 1000 to 10000 | 1000 to 10000 | – | – | – |
| NC(=O)c1c(-c2c(F)cccc2Cl)noc1-c1cnn(-c2cccc(Cl)c2)c1C(F)(F)F [Example I-121, 3-(2-chloro-6-fluorophenyl)-5-(1-(3-chlorophenyl)-5-(trifluoromethyl)-1H-pyrazol-4-yl)isoxazole-4-carboxamide] | 1000 to 10000 | 1000 to 10000 | 1000 to 10000 | – | – | – |
| CCOC(=O)c1c(-c2c(F)cccc2Cl)noc1-c1cnn(-c2ccccc2Br)c1C(F)(F)F [IB-72, ethyl 5-(1-(2-bromophenyl)-5-(trifluoromethyl)-1H-pyrazol-4-yl)-3-(2-chloro-6-fluorophenyl)isoxazole-4-carboxylate] | 100 to 1000 | 100 to 1000 | 100 to 1000 | – | – | – |
| CNC(=O)c1c(-c2ccccc2Cl)noc1-c1cnn(-c2cccc(Cl)c2)c1C(F)(F)F [IB-63, 3-(2-chlorophenyl)-5-(1-(3-chlorophenyl)-5-(trifluoromethyl)-1H-pyrazol-4-yl)-N-methylisoxazole-4-carboxamide] | 100 to 1000 | 100 to 1000 | 100 to 1000 | – | – | – |
| Nc1c(-c2c(F)cccc2Cl)noc1-c1cnn(-c2cccc(Cl)c2)c1C(F)(F)F [IB-36, 3-(2-chloro-6-fluorophenyl)-5-(1-(3-chlorophenyl)-5-(trifluoromethyl)-1H-pyrazol-4-yl)isoxazol-4-amine] | 100 to 1000 | 100 to 1000 | 100 to 1000 | – | – | – |
